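Growth conditions: 96-well plates. Treatment: test compound, 48 hours, 5 concentrations. Analysis: linear interpolation between bracketing concentrations; unreached endpoints set to highest concentration. Here, GI50 denotes the concentration required for 50% inhibition of growth. TGI: concentration producing complete growth inhibition.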
Assays:
Experiment in all cases: DTP human tumour cell line panel, 48 h
U251 CNS = system: U251 CNS
UACC-257 melanoma = system: UACC-257 melanoma
LOX IMVI melanoma = system: LOX IMVI melanoma
NCI-H460 lung = system: NCI-H460 lung
A498 renal = system: A498 renal
NCI-H226 lung = system: NCI-H226 lung
SF-268 CNS = system: SF-268 CNS
SN12C renal = system: SN12C renal
UACC-62 melanoma = system: UACC-62 melanoma
RXF 393 renal = system: RXF 393 renal

Row | SMILES | TGI (U251 CNS) | TGI (UACC-257 melanoma) | TGI (LOX IMVI melanoma) | TGI (NCI-H460 lung) | TGI (A498 renal) | TGI (NCI-H226 lung) | TGI (SF-268 CNS) | TGI (SN12C renal) | TGI (UACC-62 melanoma) | TGI (RXF 393 renal) | GI50 (U251 CNS) | GI50 (UACC-257 melanoma) | GI50 (NCI-H460 lung) | GI50 (A498 renal) | GI50 (RXF 393 renal) | GI50 (NCI-H226 lung) | GI50 (SF-268 CNS) | GI50 (SN12C renal) | GI50 (UACC-62 melanoma) | GI50 (LOX IMVI melanoma)
1 | C=C1Oc2nc3ccccc3c(=O)n2C1(C)C | > 100 µM | > 100 µM | > 100 µM | > 100 µM | > 100 µM | > 100 µM | > 100 µM | > 100 µM | > 100 µM |  |  |  |  |  |  |  |  |  |  | 
2 | O=C(O)CCC1(Br)CCCCC(Br)C1=O (configuration not stated) | > 100 µM | > 100 µM |  | > 100 µM | > 100 µM | > 100 µM | > 100 µM | > 100 µM | > 100 µM | > 100 µM |  |  |  |  |  |  |  |  |  | 
3 | CN(c1ccccc1)C1C(=O)N(c2ccccc2)C1/C=C/c1ccccc1 (configuration not stated) | > 100 µM | > 100 µM |  | > 100 µM | > 100 µM | > 100 µM | > 100 µM | > 100 µM | > 100 µM | > 100 µM |  |  |  |  |  |  |  |  |  | 
4 | CNC(C)C(=O)N[C@H](C(=O)N1CCC[C@@H]1CN(CCc1ccccc1)C(=O)C(F)(F)F)[C@H](C)OCC#CC#CCO[C@H](C)[C@H](NC(=O)[C@H](C)NC)C(=O)N1CCC[C@H]1CN(CCc1ccccc1)C(=O)C(F)(F)F (some centres not stated) | 2.48 µM | 2.72 µM |  | 3.59 µM | 2.61 µM | 3.06 µM | 3.57 µM | 3.32 µM | 3.24 µM | 0.486 µM | 1.1 µM | 1.28 µM | 1.83 µM | 1.03 µM | 0.0771 µM | 1.54 µM | 1.94 µM | 1.78 µM | 1.77 µM | 
5 | NCC1OC(OC2C(CO)OC(OC3C(O)C(N)CC(N)C3OC3OC(CO)C(O)C(O)C3N)C2O)C(N)C(O)C1O (configuration not stated) | > 50 µg/mL | > 50 µg/mL | > 50 µg/mL | > 50 µg/mL |  | > 50 µg/mL | > 50 µg/mL |  | > 50 µg/mL | > 50 µg/mL | > 50 µg/mL | > 50 µg/mL | > 50 µg/mL |  | > 50 µg/mL | > 50 µg/mL | > 50 µg/mL |  | > 50 µg/mL | > 50 µg/mL
6 | O=C(O)C#CCO | > 100 µM | > 100 µM | > 100 µM | > 100 µM | > 100 µM |  | > 100 µM | > 100 µM | > 100 µM | > 100 µM |  |  |  |  |  |  |  |  |  | 
7 | Cc1ccccc1N=Nc1c(O)[nH]c2ccccc12 | > 100 µM | > 100 µM | > 100 µM | > 100 µM |  | > 100 µM | > 100 µM | > 100 µM | > 100 µM | > 100 µM |  |  |  |  |  |  |  |  |  | 
8 | COC(=O)C1CCC(Nc2cccc(C(F)(F)F)c2)=N1 (configuration not stated) | > 100 µM | > 100 µM | > 100 µM | > 100 µM | > 100 µM | > 100 µM | > 100 µM | > 100 µM | > 100 µM |  |  |  |  |  |  |  |  |  |  | 
9 | O=c1c2ccccc2c(=O)c2c1cc(Cl)c1[nH]c3c([nH]c12)c(Cl)cc1c(=O)c2ccccc2c(=O)c13 | > 100 µM | > 100 µM |  | > 100 µM | > 100 µM | > 100 µM | > 100 µM | > 100 µM | > 100 µM | > 100 µM |  |  |  |  |  |  |  |  |  | 

Source: PubChem BioAssay (NCI)
